Test results: US6008220A, “Aromatic keto-acids and their derivatives as inhibitors of matrix metalloproteinases” (priority 1998, dated 1999)
Structures can show the parent of a compound that is named as a salt. Where two headings read alike, the source gives them in different places.

How the values were obtained:
[1] = biological target: GCD (recombinant gelatinase A catalytic domain); test: Inhibition of recombinant gelatinase A catalytic domain (GCD), thiopeptolide substrate Ac-Pro-Leu-Gly-thioester-Leu-Leu-Gly-OEt; format: biochemical
Protocol: Experiments were carried out with the catalytic domains of the proteinases.

[2] = biological target: SCD (stromelysin-1 catalytic domain) (Homo sapiens, UniProt P08254); test: Inhibition of stromelysin-1 catalytic domain (SCD), thiopeptolide substrate Ac-Pro-Leu-Gly-thioester-Leu-Leu-Gly-OEt; format: biochemical
Chain of SCD (stromelysin-1 catalytic domain) (P08254 100-272 limits assumed): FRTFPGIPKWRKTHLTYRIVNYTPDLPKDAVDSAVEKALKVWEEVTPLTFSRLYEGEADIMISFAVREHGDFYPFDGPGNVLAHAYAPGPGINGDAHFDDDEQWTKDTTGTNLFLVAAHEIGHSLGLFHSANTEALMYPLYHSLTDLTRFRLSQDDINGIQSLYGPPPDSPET
Protocol: Experiments were carried out with the catalytic domains of the proteinases. […] IC50 values were determined using a thiopeptolide substrate, Ac-Pro-Leu-Gly-thioester-Leu-Leu-Gly-OEt (Ye Q.-Z., Johnson L. L., Hupe D. J., and Baragi V., "Purification and Characterization of the Human Stromelysin Catalytic Domain Expressed in Escherichia coli", Biochemistry, 1992;31:11231-11235).

[3] = system: human ovarian carcinoma xenografts; details: mice bearing human ovarian carcinoma xenografts; cited from earlier work
[4] = system: experimental allergic encephalomyelitis (EAE); details: dose dependent; cited from earlier work
[5] = system: pig articular cartilage; details: cited from earlier work
[6] = system: bovine nasal cartilage; details: cited from earlier work

| Compound | IC50 [1] | IC50 [2] | also measured |
| --- | --- | --- | --- |
| CNC(=O)[C@H](Cc1ccccc1)NC(=O)[C@H](CC(C)C)[C@H](CSc1cccs1)C(=O)NO [BB-94] |  |  | survival [3]: prolonged the survival; tumor burden [3]: decreased the tumor burden |
| O=C(O)CCC(=O)c1ccc(N2CCC(c3ccccc3)CC2)cc1 [Example 1, 4-Oxo-4-[4-(4-phenyl-piperidin-1-yl)-phenyl]-butyric acid] | 1300 nM |  |  |
| CNC(=O)[C@H](Cc1c[nH]c2ccccc12)NC(=O)[C@@H](CC(=O)NO)CC(C)C [GM6001] |  |  | development or clinical expression of EAE [4]: suppressed the development or reversed the clinical expression |
| O=C(O)CCC(=O)c1ccc(N2CCC(c3ccccc3)CC2)cc1 [potassium salt] |  | 80 nM | IC50 ([1]; potassium salt): 560 nM |
| TIMP-1: natural endogenous inhibitors of MMPs (TIMPs) |  |  | formation of collagen fragments [5]: prevented the formation of collagen fragments; formation of proteoglycan fragments [5]: not proteoglycan fragments; formation of collagen fragments [6]: prevented the formation of collagen fragments; formation of proteoglycan fragments [6]: not proteoglycan fragments |

Continued, in another order:

| IC50 [1] | IC50 [2] | Compound | also measured |
| --- | --- | --- | --- |
| 14000 nM | 400 nM | CC(CC(=O)O)CC(=O)c1ccc(N2CCC(c3ccccc3)CC2)cc1 (racemic) [Example 7, (±)3-Methyl-5-oxo-5-[4-(4-phenyl-piperidin-1-yl)-phenyl]-pentanoic acid] |  |
| 40 nM |  | O=C(CCC(=O)c1ccc(N2CCC(c3ccccc3)CC2)cc1)NO [Example 3, N-Hydroxy-4-oxo-4-[4-(4-phenyl-piperidin-1-yl)-phenyl]-butyramide] |  |
| 150 nM | 20 nM | O=C(O)CCC(=NO)c1ccc(N2CCC(c3ccccc3)CC2)cc1 [Example 4, E/Z-4-Hydroxyimino-4-[4-(4-phenyl-piperidin-1-yl)-phenyl]-butyric acid] |  |
| 6300 nM | 2900 nM | O=C(O)CCC(=NOCc1ccccc1)c1ccc(N2CCC(c3ccccc3)CC2)cc1 [Example 5, E/Z-4-Benzyloxyimino-4-[4-(4-phenyl-piperidin-1-yl)-phenyl]-butyric acid] |  |
| 1600 nM |  | O=C(O)CCC(=O)c1ccc(N2CCN(c3ccccc3)CC2)cc1 [Example 6, 4-Oxo-4-[4-(4-phenyl-piperazin-1-yl)-phenyl]-butyric acid] |  |
